Source: patent US9347179B2, “Methods of preserving starch in pulp and controlling calcium precipitation and/or scaling” (Buckman Laboratories International, Inc., priority 2012, dated 2016)

Tested on: α-amylase (BUZYME 2508)
Assay: α-amylase activity test with RED-STARCH substrate in paper mill process water
Format: biochemical
Details: for effect on the α-amylase activity (in words): high demand solution containing α-amylase, NaOCl at between 10% to 50% of actual chlorine demand; for α-amylase activity: 15 minutes at 40° C. before substrate, 30 minutes at 40° C., percentage of the maximum reading
Method: In the experiments described below, amylase activity was measured using a synthetic α-amylase substrate, “RED-STARCH” obtained from MEGAZYME® (Ireland), and a test procedure developed that allows the use of this substrate in complex paper mill process waters including samples containing cellulose.
The indicated test procedure developed for testing paper mill samples for α-amylase activity includes preparation of the substrate by adding 1 g of powdered RED-STARCH substrate to 50 mL of 0.5 M KCl solution ([…]), and warming up to 60° C. whilst shaking vigorously until dissolved. The prepared substrate can be used fresh or stored under refrigeration until used. A concentrated assay buffer solution was prepared as a 300 mM CaCl2.2H2O solution (39.2 g/l), which for use, is diluted 200 times in the assay. Assays can be performed on any liquid sample recovered in a paper mill. Samples with high turbidity may interfere with the final measurement step. Accordingly, samples containing fiber can be filtered through a paper filter, and liquid from high consistency samples can be recovered by squeezing liquid from the sample. To perform the assay on a sample, 30 μl assay buffer, 3 ml RED-STARCH substrate solution, and a 3 ml test sample solution can be added to a 35 ml test vial, and mix and incubate the vial and contents at constant temperature (35-40° C.) for 30 minutes. The reaction is ended by adding 10 ml ethanol (denatured) or methanol and shaking vigorously, and then allowing the vial and its contents to stand for 2 minutes before filtering the contents through a paper filter. High molecular weight material can be removed by the filtering. Using a 10 ml syringe, the filtered liquid is passed through a 0.22 or 0.45 μm disposable filter cartridge. The liquid that passes through the cartridge is introduced into a spectrophotometer cuvette, and the absorbance (OD) of the reaction solution, and a separate reaction blank, are measured using a spectrophotometer. The reaction blank is prepared by adding 10 ml ethanol or methanol to a test vial first, then add 30 μl assay buffer, 3 ml red starch substrate solution, and a 3 ml test solution, and prepare the samples for measurement as above. The spectrophotometer can be a Hach DR/890 Colorimeter (Hach Company, Loveland Colo.), or other spectrophotometer device. Absorbance can be measured as optical density (OD). On incubation of the RED-STARCH substrate with α-amylase, the substrate can be depolymerized to produce low molecular weight dyed fragments which remain in solution on addition of alcohol to the reaction mixture. The measured value of OD is directly proportional to the α-amylase activity in the test sample. Most spectrophotometers have a scale that reads in OD (absorbance) units, which is a logarithmic scale. A user edited program can be entered into the DR/890 device, including choosing a wavelength of 510 nm at which absorbance is measured, using water as a blank (OD=0), and preparing a maximum α-amylase activity sample by adding a small amount of BUZYME® 2508 (Buckman Laboratories, Belgium) to water and using this in the assay (max. OD that can be measured is approximately 25). The range that is obtained with this program is very large and can suffice for all paper mill samples. Using this testing procedure, paper mill samples typically have absorbance values in the range of 1-7. If a sample gives a maximum reading, it can be diluted in water to determine a more precise value. Results can be represented as the actual number or as a percentage of the maximum reading of the procedure which is 25. The results in Table 1 below show results for α-amylase activity as a percentage of the maximum reading.
In the tests conducted, process water was used that was taken from a coated paper machine pulper fill water tank that was not being treated with an oxidizing program. First, the actual chlorine and monochloramine (NH2Cl) demands of this process water were determined (Table 1). […]

[1] = oxidant added at 10.0% of demand
[2] = oxidant added at 25.0% of demand
[3] = oxidant added at 50% of demand (NaOCl printed 50/0%)
[4] = oxidant added at 100.0% of demand

SMILES | effect on the α-amylase activity (in words) | α-amylase activity [1] | α-amylase activity [2] | α-amylase activity [3] | α-amylase activity [4] | activity to inactivate amylases (in words) (in direct tests)
NCl [NH2Cl, monochloramine] | no significant effect | 100.0% | 98.5% | 99.3% | 99.1% | 
OCl [NaOCl, sodium hypochlorite] | effective to reduce the α-amylase activity | 99.2% | 87.4% | 43.8% | 2.1% | very efficient
